Measured values: patent US11230525B2, “Organic sulfur compound, method for preparing same, and pharmaceutical composition for preventing or treating cancer or an inflammatory disease, containing same as active ingredient” (SOOKMYUNG WOMENS UNIVERSITY INDUSTRY-ACADEMIC COOPERATION …, priority 2016, dated 2022)
Like-named read-outs stand apart in the source and are kept apart here.

Assays:
[1] = tested on: PC-3 cells, human prostate cancer cells; test: Anticancer activity in prostate cancer xenograft model; format: in vivo, mice; conditions: for tumor size / cancer proliferation (FIGS. 2, 3): 50 mg/kg (SAHA 100 mg/kg) once a day for 16 days, compared with the non-treated group
Procedure: Particularly, 9×10^6 PC-3 cells, human prostate cancer cells, were inoculated subcutaneously to the right side of female BALB/c nu/nu mice at 5 weeks of age (Nara Biotech, Seoul, Republic of Korea).
(§1) When the tumor size reached 40-60 mm^3, the mice were randomly grouped (4 mice per group), which were the non-treated group (10% dimethylacetamide, 10% tween 80 and 80% distilled water), the groups treated with the compounds of comparative examples 1 and 2 (Ajoene, 50 mg/kg), the groups treated with the compounds of examples 18 and 32 (50 mg/kg), and the group treated with the positive control SAHA (Vorinostat, 100 mg/kg). The treatment was performed once a day for 16 days in total. During the treatment, the tumor size was measured with a vernier caliper, followed by evaluation according to the following formula: length (mm)×width (mm)×height (mm)/2. The weights were measured regularly.
(§2) Upon completion of the treatment (16 days later), the mice were sacrificed and the tumor weights were measured. All the experiments were performed according to the experiment protocol approved by Institutional Animal care and Use Committee (IACUC), Korea Research Institute of Bioscience and Biotechnology (KRIBB).

[2] = Body weight of mice in prostate cancer xenograft model; format: in vivo; conditions: 50 mg/kg (SAHA 100 mg/kg) once a day for 16 days
Procedure: as §1, §2

[3] = tested on: lung cancer cell line (NCl-H23); test: Cancer proliferation inhibitory activity (SRB, GI50), NCI-H23; format: cell-based; conditions: Homo sapiens, 48 hours
Outline: (§3)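 GI50 values come from an SRB protein-staining assay after 48 h of treatment with compound between 0.1 μM and 10 μM.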

[4] = tested on: renal cancer cell line (ACHN); test: Cancer proliferation inhibitory activity (SRB, GI50), ACHN; format: cell-based; conditions: Homo sapiens, 48 hours
Outline: as §3

HDAC 8 = biological target: T1, HDAC 8 (Homo sapiens, UniProt Q9BY41); test: HDAC enzyme fluorescence assay, HDAC 8; format: biochemical; set-up: Inhibitory activity (%) HDAC 8: concentration or dose not given beside the values; conditions: for Inhibitory activity (%) HDAC 8: (HDAC inhibitory activity of example compound/HDAC inhibitory activity of SAHA) × 100
T1 sequence (Q9BY41 1-377): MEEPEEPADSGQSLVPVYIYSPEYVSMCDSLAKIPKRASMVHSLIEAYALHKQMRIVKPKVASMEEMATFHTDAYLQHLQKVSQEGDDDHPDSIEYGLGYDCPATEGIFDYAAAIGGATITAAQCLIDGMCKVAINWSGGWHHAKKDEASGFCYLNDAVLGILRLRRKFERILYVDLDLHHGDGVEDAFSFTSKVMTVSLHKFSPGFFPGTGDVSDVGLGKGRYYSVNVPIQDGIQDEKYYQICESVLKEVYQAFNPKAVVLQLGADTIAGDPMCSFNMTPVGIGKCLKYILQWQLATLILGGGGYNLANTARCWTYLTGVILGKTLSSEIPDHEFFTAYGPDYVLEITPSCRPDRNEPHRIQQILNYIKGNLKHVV
Outline: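 Recombinant HDAC8 preincubated 10 min with compound in 25 mM HEPES pH 8.0, 137 mM NaCl, 1 mM MgCl2, 2.7 mM KCl, then Boc-Lys(acetyl)-AMC added at 37° C (level and time set per isoform). Trypsin development 20 min at room temperature, fluorescence 380/460 nm; activity expressed as percent relative to SAHA reference.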

HDAC 1 = HDAC 1 (Homo sapiens, UniProt Q13547); test: HDAC enzyme fluorescence assay, HDAC 1; format: biochemical; conditions: recombinant HDAC enzyme, Boc-Lys(acetyl)-AMC
Procedure: Particularly, HDAC enzyme analysis was performed based on a uniform fluorescence emission assay. First, the compounds of examples of the present invention or comparative example 1 were diluted at different concentrations, which were treated to the analysis buffer containing 25 mM HEPES (pH 8.0), 137 mM NaCl, 1 mM MgCl2 and 2.7 mM KCL, followed by culture of the recombinant HDAC enzyme. 10 minutes later, Boc-Lys(acetyl)-AMC, the fluorescence inducing substrate, was added thereto, followed by further culture at 37° C. At this time, the concentration of the fluorescence inducing substrate and the culture time were adjusted according to the isotypes of the HDAC enzyme. The reaction was terminated by treating trypsin at room temperature for 20 minutes. The fluorescence intensity was measured using a fluorescence analyzer at an excitation wavelength of 380 nm and an emission wavelength of 460 nm, respectively. The inhibition rate was calculated from the measured fluorescence intensity of each well with comparing to that of the control well. IC50 of the compound was calculated by analyzing the dose-reaction inhibition curve.

[5] = tested on: gastric cancer cell line (NUGC-3); test: Cancer proliferation inhibitory activity (SRB, GI50), NUGC-3; format: cell-based; conditions: Homo sapiens, 48 hours
Outline: as §3

[6] = tested on: colorectal cancer cell line (HCT-15); test: Cancer proliferation inhibitory activity (SRB, GI50), HCT-15; format: cell-based; conditions: Homo sapiens, 48 hours
Outline: as §3

[7] = tested on: prostate cancer cell line (PC-3); test: Cancer proliferation inhibitory activity (SRB, GI50), PC-3; format: cell-based; conditions: Homo sapiens, 48 hours
Outline: as §3

HDAC 1, sequence (Q13547 whole entry, species assumed): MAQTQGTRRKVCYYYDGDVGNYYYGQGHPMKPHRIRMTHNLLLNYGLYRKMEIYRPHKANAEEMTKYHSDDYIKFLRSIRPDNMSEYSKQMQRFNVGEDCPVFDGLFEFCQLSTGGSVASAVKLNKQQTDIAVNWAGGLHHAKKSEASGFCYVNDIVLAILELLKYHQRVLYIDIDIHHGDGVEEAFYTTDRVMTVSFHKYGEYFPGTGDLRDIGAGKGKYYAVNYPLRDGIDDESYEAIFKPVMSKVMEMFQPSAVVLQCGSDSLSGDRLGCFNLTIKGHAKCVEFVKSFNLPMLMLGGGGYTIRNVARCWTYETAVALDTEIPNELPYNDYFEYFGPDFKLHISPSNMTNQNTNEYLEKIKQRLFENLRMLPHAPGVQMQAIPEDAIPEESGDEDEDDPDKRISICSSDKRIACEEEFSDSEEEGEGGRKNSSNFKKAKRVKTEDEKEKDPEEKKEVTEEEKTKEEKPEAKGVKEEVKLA

**Q.** Which “tumor size / cancer proliferation (FIGS. 2, 3)” value [1] does the source give for `COc1ccc([S+]([O-])C/C=C\SSCc2ccccc2)cc1` (stereo not drawn) [Example 32, (Z)-1-benzyl-2-(3-(4-methoxyphenylsulfinyl)prop-1-enyl)disulfane] here?
**A.** cancer proliferation was inhibited

**Q.** What about the “changes in weight of mice / visible toxicity (FIG. 1)” value [2] of the same compound?
**A.** only normal weight increases were observed

**Q.** What about the GI50 [3] of the same compound?
**A.** 4370 nM

**Q.** And the GI50 [4]?
**A.** 3120 nM

**Q.** And the “Inhibitory activity (%) HDAC 8” value (HDAC 8)?
**A.** 150.4%

**Q.** And the IC50 (HDAC 8; recombinant HDAC enzyme, Boc-Lys(acetyl)-AMC, read-out: IC50 HDAC 8)?
**A.** 37 nM

**Q.** What about the IC50 (HDAC 1) of the same compound?
**A.** 4550 nM

**Q.** And the GI50 [5]?
**A.** 3820 nM

**Q.** What about the GI50 [6] of the same compound?
**A.** 1550 nM

**Q.** And the GI50 [7]?
**A.** 3190 nM

**Q.** What does the source list for `CCCSS/C=C\C[S+]([O-])c1cccc(OC)c1` (stereo not drawn) [Example 18, (Z)-1-(3-(3-methoxyphenylsulfinyl)prop-1-enyl)-2-propyldisulfane]?
**A.** tumor size / cancer proliferation (FIGS. 2, 3) [1]: inhibit cancer proliferation similarly to the positive control SAHA; tumor weight (FIG. 4) ([1]; 50 mg/kg once a day, tumor extracted after 16 days): lighter than the tumor weight in the non-treated group; changes in weight of mice / visible toxicity (FIG. 1) [2]: only normal weight increases were observed; GI50 [3]: 1590 nM; GI50 [4]: 2060 nM; Inhibitory activity (%) HDAC 8 (HDAC 8): 147.2%; IC50 (HDAC 8; read-out: IC50 against HDAC 8): 35 nM; IC50 (HDAC 1): 3520 nM; GI50 [5]: 1710 nM; GI50 [6]: 1340 nM; GI50 [7]: 1920 nM
